# According to PubChem BioAssay AID1259411 (Chemical Carcinogenesis Research Information System (CCRIS), 2018):
# Active and inactive are the calls of the source. How the calls were made is not given here.
# Test system: rodent carcinogenicity bioassays, tumor incidence
# Assay: CCRIS carcinogenicity studies
# Summary of the method: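 NCI-built, expert-reviewed records of carcinogenicity and related test outcomes (mutagenicity, tumor promotion/inhibition) compiled from published and report sources, historical span 1985-2011, not updated.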
compound,measurement,setting,value
Oc1ccc2c(c1)OCO2,carcinogen call,"Species: MOUSE, Strain/Sex: B6C3F1/FEMALE, Route: ORAL, Dose: 0, 2% IN DIET FOR 96 WK (STUDY DURATION: 96 WK), Tumor Site: Type of Lesion: FORESTOMACH: SQUAMOUS CELL CARCINOMA",active; positive
same,carcinogen call,"Species: MOUSE, Strain/Sex: B6C3F1/FEMALE, Route: ORAL, Dose: 0, 2% IN POWDERED BASAL DIET FOR 96 WK (STUDY DURATION: 96 WK), Tumor Site: Type of Lesion: FORESTOMACH: SQUAMOUS CELL CARCINOMA",active; positive
same,carcinogen call,"Species: MOUSE, Strain/Sex: B6C3F1/MALE, Route: ORAL, Dose: 0, 2% IN DIET FOR 96 WK (STUDY DURATION: 96 WK), Tumor Site: Type of Lesion: FORESTOMACH: SQUAMOUS CELL CARCINOMA",active; positive
same,carcinogen call,"Species: MOUSE, Strain/Sex: B6C3F1/MALE, Route: ORAL, Dose: 0, 2% IN POWDERED BASAL DIET FOR 96 WK (STUDY DURATION: 96 WK), Tumor Site: Type of Lesion: FORESTOMACH: SQUAMOUS CELL CARCINOMA",active; positive
same,carcinogen call,"Species: RAT, Strain/Sex: F344/FEMALE, Route: ORAL, Dose: 0, 2% IN DIET FOR 104 WK (STUDY DURATION: 104 WK)",inactive; negative
same,carcinogen call,"Species: RAT, Strain/Sex: F344/FEMALE, Route: ORAL, Dose: 0, 2% IN DIET FOR 104 WK (STUDY DURATION: 104 WK), Tumor Site: Type of Lesion: FORESTOMACH: PAPILLOMA",active; positive
same,carcinogen call,"Species: RAT, Strain/Sex: F344/FEMALE, Route: ORAL, Dose: 0, 2% IN POWDERED BASAL DIET FOR 104 WK (STUDY DURATION: 104 WK), Tumor Site: Type of Lesion: FORESTOMACH: PAPILLOMA",active; positive
same,carcinogen call,"Species: RAT, Strain/Sex: F344/MALE, Route: ORAL, Dose: 0, 0.4% IN DIET FOR DURATION OF STUDY (STUDY DURATION: 104 WK)",inactive; negative
same,carcinogen call,"Species: RAT, Strain/Sex: F344/MALE, Route: ORAL, Dose: 0, 2% IN DIET FOR 104 WK (STUDY DURATION: 104 WK), Tumor Site: Type of Lesion: FORESTOMACH: PAPILLOMA, SQUAMOUS CELL CARCINOMA",active; positive
same,carcinogen call,"Species: RAT, Strain/Sex: F344/MALE, Route: ORAL, Dose: 0, 2% IN DIET FOR 104 WK (STUDY DURATION: 104 WK), Tumor Site: Type of Lesion: FORESTOMACH: SQUAMOUS CELL CARCINOMA",active; positive
same,carcinogen call,"Species: RAT, Strain/Sex: F344/MALE, Route: ORAL, Dose: 0, 2% IN POWDERED BASAL DIET FOR 104 WK (STUDY DURATION: 104 WK), Tumor Site: Type of Lesion: FORESTOMACH: PAPILLOMA, SQUAMOUS CELL CARCINOMA",active; positive
CC(Cl)CCl (stereo not given),carcinogen call,"Species: MOUSE, Strain/Sex: B6C3F1/FEMALE, Route: GAVAGE, Dose: 0, 125, 250 MG/KG IN CORN OIL 5 D/WK FOR 103 WK (STUDY DURATION: 104 WK), Dose: 0, 125, 250 MG/KG IN CORN OIL 5 D/WK FOR 103 WK (STUDY DURATION: 104 WK), Tumor Site: Type of Lesion: LIVER: ADENOMA, ADENOMA OR CARCINOMA",active; positive
same,carcinogen call,"Species: MOUSE, Strain/Sex: B6C3F1/MALE, Route: GAVAGE, Dose: 0, 125, 250 MG/KG IN CORN OIL 5 D/WK FOR 103 WK (STUDY DURATION: 104 WK), Dose: 0, 125, 250 MG/KG IN CORN OIL 5 D/WK FOR 103 WK (STUDY DURATION: 104 WK), Tumor Site: Type of Lesion: LIVER: ADENOMA, ADENOMA OR CARCINOMA",active; positive
same,carcinogen call,"Species: RAT, Strain/Sex: F344/FEMALE, Route: GAVAGE, Dose: 0, 125, 150 MG/KG IN CORN OIL 5 D/WK FOR 103 WK (STUDY DURATION: 104 WK), Dose: 0, 125, 150 MG/KG IN CORN OIL 5 D/WK FOR 103 WK (STUDY DURATION: 104 WK), Tumor Site: Type of Lesion: MAMMARY GLAND: ADENOCARCINOMA",equivocal
same,carcinogen call,"Species: RAT, Strain/Sex: F344/MALE, Route: GAVAGE, Dose: 0, 62, 125 MG/KG IN CORN OIL 5 D/WK FOR 103 WK (STUDY DURATION: 104 WK), Dose: 0, 62, 125 MG/KG IN CORN OIL 5 D/WK FOR 103 WK (STUDY DURATION: 104 WK)",inactive; negative
S=P(N1CCOCC1)(N1CC1)N1CC1,carcinogen call,"Species: MOUSE, Route: INTRAPERITONEAL, Tumor Site: Type of Lesion: LUNG",active; positive
C#C[C@]1(O)CC[C@H]2[C@@H]3CCc4cc(O)ccc4[C@H]3[C@@H](OC)C[C@@]21C,carcinogen call,"Species: HAMSTER, Strain/Sex: SYRIAN/MALE, Route: SUBCUTANEOUS IMPLANT, Dose: 0, 20 MG IN PELLETS IMPLANTED EVERY 2.5 MO FOR 9 MO (STUDY DURATION: 9 MO), Tumor Site: Type of Lesion: KIDNEY: TUMOR",active; positive
O=NN1CC=CC[C@H]1c1cccnc1,carcinogen call,"Species: RAT, Strain/Sex: F344/FEMALE, Route: SUBCUTANEOUS, Dose: 0, 1, 3, 9 MMOL/KG BW (TOTAL DOSE) WITH SUBDOSES GIVEN 3/WK FOR 20 WK WITH A 2 WK INTERRUPTION AFTER 7 WK (STUDY DURATIO, Dose: 0, 1, 3, 9 MMOL/KG BW (TOTAL DOSE) WITH SUBDOSES GIVEN 3/WK FOR 20 WK WITH A 2 WK INTERRUPTION AFTER 7 WK (STUDY DURATIO",inactive; negative
same,carcinogen call,"Species: RAT, Strain/Sex: F344/MALE, Route: SUBCUTANEOUS, Dose: 0, 1, 3, 9 MMOL/KG BW (TOTAL DOSE) WITH SUBDOSES GIVEN 3/WK FOR 20 WK WITH A 2 WK INTERRUPTION AFTER 7 WK (STUDY DURATIO, Dose: 0, 1, 3, 9 MMOL/KG BW (TOTAL DOSE) WITH SUBDOSES GIVEN 3/WK FOR 20 WK WITH A 2 WK INTERRUPTION AFTER 7 WK (STUDY DURATIO",inactive; negative
OCCN(CCO)CCO,carcinogen call,"Species: MOUSE, Route: ORAL, Tumor Site: Type of Lesion: LYMPHATIC SYSTEM",active; positive
same,carcinogen call,"Species: MOUSE, Strain/Sex: B6C3F1/FEMALE, Route: DERMAL, Dose: 0, 100, 300, 1000 MG/KG 5 D/WK FOR 104 -105 WKS (STUDY DURATION: 105 WKS), Dose: 0, 100, 300, 1000 MG/KG 5 D/WK FOR 104 -105 WKS (STUDY DURATION: 105 WKS), Tumor Site: Type of Lesion: LIVER: HEPATOCELLULAR ADENOMA OR CARCINOMA",active; positive
same,carcinogen call,"Species: MOUSE, Strain/Sex: B6C3F1/FEMALE, Route: ORAL, Dose: 0, 1, 2% IN DRINKING WATER FOR 82 WK (STUDY DURATION: 82 WK), Dose: 0, 1, 2% IN DRINKING WATER FOR 82 WK (STUDY DURATION: 82 WK)",inactive; negative
same,carcinogen call,"Species: MOUSE, Strain/Sex: B6C3F1/MALE, Route: DERMAL, Dose: 0, 200, 630, 2000 MG/KG 5D/WK FOR 104 WKS (STUDY DURATION: 104 WKS), Dose: 0, 200, 630, 2000 MG/KG 5D/WK FOR 104 WKS (STUDY DURATION: 104 WKS), Tumor Site: Type of Lesion: LIVER: HEMANGIOSARCOMA AT MEDIAN DOSE LEVEL",equivocal; p=0.047 at median dose for hemangiosarcoma
same,carcinogen call,"Species: MOUSE, Strain/Sex: B6C3F1/MALE, Route: ORAL, Dose: 0, 1, 2% IN DRINKING WATER FOR 82 WK (STUDY DURATION: 82 WK), Dose: 0, 1, 2% IN DRINKING WATER FOR 82 WK (STUDY DURATION: 82 WK)",inactive; negative
same,carcinogen call,"Species: RAT, Strain/Sex: F344/FEMALE, Route: DERMAL, Dose: 0, 32, 63, 125 MG/KG 5 D/WK FOR 103 WK (STUDY DURATION: 103 WK), Dose: 0, 32, 63, 125 MG/KG 5 D/WK FOR 103 WK (STUDY DURATION: 103 WK)",inactive; negative
same,carcinogen call,"Species: RAT, Strain/Sex: F344/MALE, Route: DERMAL, Dose: 0, 32, 63, 125 MG/KG 5 D/WK FOR 103 WK (STUDY DURATION: 103 WK), Dose: 0, 32, 63, 125 MG/KG 5 D/WK FOR 103 WK (STUDY DURATION: 103 WK), Tumor Site: Type of Lesion: KIDNEY: RENAL TUBULE ADENOMA",equivocal
CCOc1ccc(NC(C)=O)cc1N,carcinogen call,"Species: MOUSE, Strain/Sex: B6C3F1/FEMALE, Route: ORAL, Dose: 0, 0.4, 0.8% OF DIET, Dose: 0, 0.4, 0.8% OF DIET",inactive; negative
same,carcinogen call,"Species: MOUSE, Strain/Sex: B6C3F1/MALE, Route: ORAL, Dose: 0, 0.4, 0.8% OF DIET, Dose: 0, 0.4, 0.8% OF DIET, Tumor Site: Type of Lesion: THYROID GLAND: FOLLICULAR CELL ADENOMA, CARCINOMA, ADENOCARCINOMA, ADENOMA, LUNG: ALVEOLAR/BRONCHIOLAR ADENOMA, CARCINOM",active; positive
same,carcinogen call,"Species: RAT, Strain/Sex: F344/FEMALE, Route: ORAL, Dose: 0, 0.4, 1.5% OF DIET, Dose: 0, 0.4, 1.5% OF DIET",inactive; negative
same,carcinogen call,"Species: RAT, Strain/Sex: F344/MALE, Route: ORAL, Dose: 0, 0.4, 1.5% OF DIET, Dose: 0, 0.4, 1.5% OF DIET",inactive; negative
